Results on 6 molecules are retold here after patent US5714488A, “Bis-heteroarylylmethoxyphenyl ketone derivatives as inhibitors of leukotriene biosynthesis” (Abbott Laboratories, priority 1996, dated 1998).

Where a name gives a salt, the structure may show the parent alone.

The subject of one assay is leukotriene biosynthesis. Nature of the assay: In vivo leukotriene inhibition, Ionophore A23187-Induced Rat Pleural Inflammation Model. Particulars: 3.O mg/kg; male rats; dosed in 0.2% methocel one hour prior to intrapleural A23187 (20 μg); lavage after thirty minutes. The method, then:
Inhibition of leukotriene biosynthesis in vivo was evaluated using the Ionophore A23187-Induced Rat Pleural Inflammation Model. Pleural inflammation was induced in male rats following the method of Rao, et al. (Rao, T. S., Currie, J. L., Shaffer, A. F., Isakson, P. C., Evaluation of 5-lipoxygenase Inhibitors, Zileuton, A-78773 and ICI D-2138 in an Ionophore (A-23187) Induced Pleural Inflammation Model in the Rat, Life Sciences, 53, 147 (1993)). Rats were dosed with experimental compounds in 0.2% methocel one hour prior to the intrapleural injection of the calcium ionophore, A23187. The rats where lightly anesthetized with Pentrane (Abbott Laboratories) and injected intrapleurally with 0.5 ml of 2% ethanol in injectable saline (Abbott Laboratories) containing 20 μg of A23187 (Cal BioChem-Novabiochem). Thirty minutes later the animals were euthanised and the pleural cavities lavaged with ice cold saline (Abbott Laboratories). The lavage fluid was then added to ice cold methanol (final methanol concentration 30%) to lyse cells and precipitate protein. Eicosanoids were determined by enzyme immunoassay by standard methods.
For `O=C(O)CON=CC=C(c1ccc(OCc2ccc3ccccc3n2)cc1)c1ccc(OCc2ccc3ccccc3n2)cc1` [Example 12], the “% Inhibition (In Vivo Leukotriene Inhibition in Rat Pleural Inflammation)” value is 60%.

The subject of another assay is 5-Lipoxygenase. Kind of assay: Inhibition of calcium ionophore-induced LTB4 formation in human polymorphonuclear leukocytes (PMNL). In kind it is cell-based. Particulars: 15 min preincubation, calcium ionophore 8.3 μM, 10 min at 37° C., LTB4 by enzyme-linked immunoassay or HPLC, read-out: IC50 (In Vitro Inhibitory Potencies Against 5-Lipoxygenase From Stimulated LTB4 Formation in Human Polymorphonuclear Leukocytes). As for the experimental part:
Inhibition of leukotriene biosynthesis was evaluated in vitro using an assay involving calcium ionophore-induced LTB4 expressed in human polymorphornuclear leukocytes (PMNL). Human PMNL isolated from heparinized (20 USP units/mL) venous blood (25 mL) obtained from healthy volunteers was layered over an equal volume of Ficoll-Hypaque Mono-Poly Resolving Medium (ICN Flow, Costa Mesa, CA) and centrifugated at 400×g for 40 minutes at 20° C. The PMNL was collected, erythrocytes lysed and washed 2× and suspended at 1.0×10^7 cells/mL in Earle's balanced salt solution with 17 mM Earle's HEPES. Aliquots of the cell suspension were preincubated with test compounds dissolved in DMSO (final concentration <2%) for 15 minutes and stimulated with calcium ionophore (final concentration 8.3 μM) for 10 min. at 37° C. Incubations were stopped with the addition of two volumes of ice-cold methanol followed by centrifuging the cell suspensions at 4° C. for 10 minutes at 450×g. The amount of LTB4 in the methanol extract was analyzed by enzyme-linked immunoassay or by HPLC analysis.
`O=C(O)CON=C(c1ccc(OCc2ccc3ccccc3n2)cc1)c1ccc(OCc2ccc3ccccc3n2)cc1` [Example 1, bis(4-(2-quinolylmethoxy)phenyl)methyloximinoacetic acid]: the IC50 is 32 nM. Same read-out and setting: under `ON=C(c1ccc(OCc2ccc3ccccc3n2)cc1)c1ccc(OCc2ccc3ccccc3n2)cc1` [Example 2, bis(4-(2-quinolylmethoxy)phenyl) ketoxime] stands 40 nM; under `O=C(O)CON=C(c1ccc(OCc2ccc3ccc(Cl)cc3n2)cc1)c1ccc(OCc2ccc3ccc(Cl)cc3n2)cc1` [Example 6, bis(4-(7-chloro-2-quinolylmethoxy)phenyl)methyloximinoaceticacid], 220 nM; under `O=C(O)CON=C(c1ccc(OCc2nc3ccccc3s2)cc1)c1ccc(OCc2nc3ccccc3s2)cc1` [Example 9, bis(4-(2-benzothiazoylmethoxy)-phenyl)methyloximinoacetic acid sodium salt], 40 nM. On the same count and under the same terms, under `O=C(O)C=C(c1ccc(OCc2ccc3ccccc3n2)cc1)c1ccc(OCc2ccc3ccccc3n2)cc1` [Example 11] stands 50 nM.

As to `O=C(O)CON=CC=C(c1ccc(OCc2ccc3ccccc3n2)cc1)c1ccc(OCc2ccc3ccccc3n2)cc1` [Example 12], the IC50 worked out at 26 nM.
